Data reported in publication PMC6044835, “Expression, Purification, and Biochemical Characterization of the Flavocytochrome P450 CYP505A30 from Myceliophthora thermophila” (ACS Omega, 2017).
Read-outs that look alike come from different tables or passages of the source.

Tests used:
[1] = target: T1, CYP505A30 (Thermothelomyces thermophilus, UniProt G2QDZ3); assay: UV–visible spectral binding titration with intact CYP505A30; details: for Kd: substrate binding to intact CYP505A30, heme absorbance change, 25 °C
[2] = target: T2, CYP505A30 heme domain (Thermothelomyces thermophilus, UniProt G2QDZ3); details: arachidonic acid-bound heme domain, vs NHE
[3] = target: T2, CYP505A30 heme domain; assay: UV–visible spectral binding titration with CYP505A30 heme domain
[4] = system: P450 BM3; details: cited from earlier work
[5] = target: FMN (flavodoxin-like) domain of human reductase; design: method as in PMID 6778861, PMID 11695890, PMID 12600198; details: cited from earlier work
[6] = system: FMN (flavodoxin-like) domain of P450 BM3 reductase; design: method as in PMID 6778861, PMID 11695890, PMID 12600198; details: cited from earlier work
[7] = target: Desulfovibrio vulgaris flavodoxin; details: D. vulgaris flavodoxin; cited from earlier work
[8] = system: CYP505A1; assay: CYP505A1 dodecanoic acid oxidation product distribution (literature); assay type: biochemical, Fusarium oxysporum; details: CYP505A1, from literature values
[9] = target: T1, CYP505A30
[10] = system: CYP505A1; design: method as in PMID 11985584; details: cited from earlier work
[11] = target: T1, CYP505A30; remark: listed apart in the source
[12] = target: T2, CYP505A30 heme domain
[13] = system: P450 BM3; design: method as in PMID 1727637; details: cited from earlier work
[14] = target: rat CPR; details: cited from earlier work
[15] = target: T3, heme domain (Thermothelomyces thermophilus, UniProt G2QDZ3); assay: UV-visible spectral binding titration of fatty acid substrates (type I heme Soret shift) to ca. 4-6 uM enzyme in 50 mM potassium phosphate pH 7.0 at 25 °C, hyperbolic or Morrison fit.
T3 construct: gene MYCTH_101224; heme domain, amino acids 1-464 (stop codon at Gly465, named D464X), N-terminal hexahistidine tag (pET15b), expressed in E. coli
T3 sequence (G2QDZ3 1-464): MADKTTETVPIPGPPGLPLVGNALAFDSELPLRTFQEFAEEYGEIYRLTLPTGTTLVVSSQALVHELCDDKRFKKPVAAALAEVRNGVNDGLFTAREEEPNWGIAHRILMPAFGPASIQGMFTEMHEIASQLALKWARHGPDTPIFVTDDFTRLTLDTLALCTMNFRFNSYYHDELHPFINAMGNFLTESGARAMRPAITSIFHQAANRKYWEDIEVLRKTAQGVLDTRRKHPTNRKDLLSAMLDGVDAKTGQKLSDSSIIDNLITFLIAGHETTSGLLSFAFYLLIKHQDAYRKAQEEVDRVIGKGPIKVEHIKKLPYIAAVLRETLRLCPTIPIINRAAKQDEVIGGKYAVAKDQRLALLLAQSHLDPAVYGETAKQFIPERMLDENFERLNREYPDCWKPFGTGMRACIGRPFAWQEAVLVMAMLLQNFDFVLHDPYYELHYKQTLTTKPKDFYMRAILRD

[16] = target: T1, CYP505A30; assay: as above; design: gene MYCTH_101224; intact CYP505A30, amino acids 1-1080, N-terminal hexahistidine tag (pET15b), expressed in E. coli

T1 sequence (G2QDZ3 entry or part of it): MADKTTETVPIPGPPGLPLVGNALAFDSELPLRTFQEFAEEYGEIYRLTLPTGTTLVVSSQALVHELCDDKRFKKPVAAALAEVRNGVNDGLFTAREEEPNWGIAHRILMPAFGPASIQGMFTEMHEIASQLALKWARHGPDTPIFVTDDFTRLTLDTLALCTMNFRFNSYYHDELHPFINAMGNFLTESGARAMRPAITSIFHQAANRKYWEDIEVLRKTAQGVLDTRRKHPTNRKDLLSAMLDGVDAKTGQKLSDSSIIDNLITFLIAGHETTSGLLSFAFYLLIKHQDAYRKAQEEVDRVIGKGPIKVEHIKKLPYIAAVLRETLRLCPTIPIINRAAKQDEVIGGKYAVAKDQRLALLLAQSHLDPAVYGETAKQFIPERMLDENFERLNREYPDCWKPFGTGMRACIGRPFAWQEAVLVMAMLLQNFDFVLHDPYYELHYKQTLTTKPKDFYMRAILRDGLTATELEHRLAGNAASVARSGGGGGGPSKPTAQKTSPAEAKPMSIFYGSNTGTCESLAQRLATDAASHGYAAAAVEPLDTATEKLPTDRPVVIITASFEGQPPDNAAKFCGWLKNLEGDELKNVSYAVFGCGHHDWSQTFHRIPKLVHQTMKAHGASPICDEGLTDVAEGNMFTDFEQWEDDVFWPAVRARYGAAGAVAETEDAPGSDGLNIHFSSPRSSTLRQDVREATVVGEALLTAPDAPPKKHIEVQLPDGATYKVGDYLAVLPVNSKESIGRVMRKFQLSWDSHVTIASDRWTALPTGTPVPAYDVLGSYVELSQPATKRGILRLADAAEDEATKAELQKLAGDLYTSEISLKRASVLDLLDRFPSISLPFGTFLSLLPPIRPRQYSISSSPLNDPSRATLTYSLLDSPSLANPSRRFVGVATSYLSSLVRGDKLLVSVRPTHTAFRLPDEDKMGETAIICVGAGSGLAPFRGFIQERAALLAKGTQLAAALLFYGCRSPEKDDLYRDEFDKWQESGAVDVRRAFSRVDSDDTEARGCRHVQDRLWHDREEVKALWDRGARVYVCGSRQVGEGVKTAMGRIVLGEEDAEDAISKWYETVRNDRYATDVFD

**Q.** Which results are given for `CCCCC/C=C\C/C=C\C/C=C\C/C=C\CCCC(=O)O` [arachidonic acid]?
**A.** Kd [1]: 1.7 ± 0.1 µM; HS (%) ([1]; extent of HS heme iron accumulated, intact CYP505A30, estimated to nearest 5%): 60%; heme Fe^III/Fe^II midpoint potential E^0′ [2]: −69 ± 3 mV; Kd [3]: 0.12 ± 0.01 µM; HS (%) ([3]; extent of HS heme iron accumulated, heme domain, estimated to nearest 5%): 65%; kcat ([4]; P450 BM3, similar conditions): 285 ± 32 s^–1; rate constant of oxidation ([4]; P450 BM3): > 17 000 min^–1

**Q.** For `Cc1cc2nc3c(=O)[nH]c(=O)nc-3n(C[C@H](O)[C@H](O)[C@H](O)COP(=O)(O)O)c2cc1C` [FMN, flavin mononucleotide], which Kd [5] is on record?
**A.** Its Kd is 0.042 ± 0.007 µM.

**Q.** And the Kd [6]?
**A.** Its Kd is 0.086 ± 0.014 µM.

**Q.** And the Kd [7]?
**A.** Its Kd is 0.0024 µM.

**Q.** For `CCCCCCCCCCCC(=O)O` [dodecanoic acid], which Kd [1] is on record?
**A.** Its Kd is 6.1 ± 0.4 µM.

**Q.** And the “ratio ω-1/ω-2 hydroxylated products” value [8]?
**A.** Its value is 1.5.

**Q.** What about the “ratio ω-1/ω-2 hydroxylated products” value ([9]; CYP505A30) of the same molecule?
**A.** Its value is 8.8.

**Q.** What about the “ω-1 hydroxylated product proportion” value ([9]; CYP505A30, GC–MS) of the same molecule?
**A.** The value was 88%.

**Q.** What about the “ω-2 hydroxylated product proportion” value ([9]; CYP505A30, GC–MS) of the same molecule?
**A.** Its value is about 10%.

**Q.** And the “ω-3 hydroxylated product proportion” value ([9]; CYP505A30, GC–MS)?
**A.** The value was 2%.

**Q.** And the “ω-1 hydroxylated product proportion” value ([9]; CYP505A30, GC–MS, listed as lauric acid)?
**A.** The value was “approximately 88%”.

**Q.** And the “ω-1 hydroxylated product proportion” value [10]?
**A.** The value was about 55%.

**Q.** And the “ω-2 hydroxylated product proportion” value [10]?
**A.** Its value is about 37%.

**Q.** And the “ω-3 hydroxylated product proportion” value [10]?
**A.** The value was about 8%.

**Q.** And the Kd [3]?
**A.** The Kd was 9 ± 0.9 µM.

**Q.** And the “HS (%)” value [11]?
**A.** Its value is 10%.

**Q.** What about the “HS (%)” value [12] of the same molecule?
**A.** The value was 60%.

**Q.** What about the “ω-1 hydroxylated product proportion” value [13] of the same molecule?
**A.** The value was 48%.

**Q.** What about the “ω-2 hydroxylated product proportion” value [13] of the same molecule?
**A.** The value was 26%.

**Q.** And the “ω-3 hydroxylated product proportion” value [13]?
**A.** Its value is 26%.

**Q.** Which binding [14] does the source give for `Cc1cc2nc3c(=O)[nH]c(=O)nc-3n(C[C@H](O)[C@H](O)[C@H](O)COP(=O)(O)OP(=O)(O)OC[C@H]3O[C@@H](n4cnc5c(N)ncnc54)[C@H](O)[C@@H]3O)c2cc1C` [FAD, flavin adenine dinucleotide] here?
**A.** Its binding is “subnanomolar”.

**Q.** Which results are given for `CCCCCCCCCCCCCCCC(=O)NCC(=O)O` [N-palmitoylglycine (NPG), N-palmitoylglycine]?
**A.** Kd [15]: 2.7 ± 0.8 µM; Kd [16]: 5.4 ± 0.1 µM
